Common to all, as to experiment: inhibition of tumour cell growth, NCI panel, 48 h
Assay [1] deals with UACC-62 melanoma.
Assay [2] has as its system KM12 colon.
Assay [3] deals with SN12C renal.
Assay [4] concerns U251 CNS.
The test system of assay [5] is UACC-257 melanoma.
In assay [6] the test system is IGROV1 ovarian.
Assay [7] has as its system HCT-116 colon.
Assay [8] relates to NCI-H23 lung.
Assay [9] has as its system SW-620 colon.
The subject of assay [10] is EKVX NSCLC.

Where “and” joins values, the source holds several entries; their conditions need not be identical. Equal entries are not always repeated.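 In this assay, cells in 96-well plates receive the compound at five concentrations for 48 hours. Endpoints are linearly interpolated between the surrounding concentrations. Here, GI50 denotes the concentration required for 50% inhibition of growth. The concentration for full growth arrest is given as TGI.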 Where only a bound is given, the exact number is not on record here.

On to `COc1cc(-c2cc(-c3cc4c([nH]c5ccccc54)c(-c4cc(OC)c(OC)c(OC)c4)n3)cc(-c3ccccc3)n2)cc(OC)c1OC`, for which the GI50 was 2.9 µM in [1]; 4.09 µM in [2]; 4.08 µM in assay [3]; 4.25 µM in assay [4]; 6.14 µM in assay [5]; 6.44 µM in [6]. The GI50 in assay [7] was 4.02 µM; in assay [8], 5.52 µM; in assay [9], 3.62 µM. For the same compound, the TGI in [1] is 18 µM; in assay [2], over 100 µM; in assay [3], over 100 µM; in [4] it was 29.1 µM; in assay [5], 44.6 µM; in [6] it was over 100 µM. The TGI in [7], in assay [8] and in [9] was over 100 µM in each case.
As to `O=C(CCc1n[nH]c(=S)o1)Nc1ccccc1C(F)(F)F`, the TGI in assay [10], in assay [1], in assay [2], in assay [3], in [4] and in assay [5] was over 100 µM throughout. Besides, the TGI was over 100 µM in [6], over 100 µM in [8] and 49 µM in [9].
Regarding `COC1(OC)C(N(C)C)=C(Cl)C(=O)/C1=C/C=O`, the TGI in [1], in assay [3], in [4], in [5], in assay [6] and in assay [7] was over 100 µM throughout. Besides, the TGI in assay [8] and in assay [9] was over 100 µM throughout.
Take `CC1c2c(Cl)nc3ccccc3c2Oc2c1c(Cl)nc1ccccc21`: the TGI in assay [10], in assay [2], in assay [4], in [5], in [6] and in assay [7] was over 100 µM throughout. For the same compound, the TGI in assay [8] and in assay [9] was over 100 µM throughout.
For `CC1CN(C(=O)CN2CCC(CCCCN(C)C)CC2)c2ccccc2NC1=O` (stereo not given), the TGI in assay [1], in [3], in assay [4], in assay [5], in assay [6] and in assay [7] was over 100 µM throughout. In addition, the TGI in [8] and in assay [9] was over 100 µM throughout.
In the case of `Cc1nn(-c2ccc(Cl)cc2)c2nc3c(nc12)C(=O)c1ccccc1-3`, the GI50 in assay [10], in assay [1], in assay [2], in [3], in assay [4] and in [5] was over 100 µM throughout. Moreover, the GI50 in assay [6], in [8] and in assay [9] was over 100 µM throughout. The TGI in [10], in [1], in assay [2], in assay [3], in [4] and in [5] was over 100 µM in each case. Moreover, the TGI in assay [6], in [8] and in assay [9] was over 100 µM in each case.
Consider `C=CCCCCOc1ccccc1-c1cnc(OCCCCC=C)n1C`, for which the GI50 was 11 µM in assay [10]; 3.93 µM in [1]; 3.3 µM in [2]; 5.51 µM in assay [3]; 2.14 µM in assay [5]; 4.64 µM in assay [6]. Besides, the GI50 was 2.66 µM in assay [7], 5.04 µM in [8] and 2.97 µM in assay [9]. Moreover, the TGI in assay [10] came out at 44.1 µM; in assay [1], 17.4 µM; in assay [2], 13.1 µM; in assay [3], 23.9 µM; in [5] it was 12.9 µM; in assay [6] it was 20.1 µM. In addition, the TGI stood at 11.8 µM in [7], 26.8 µM in assay [8] and 11 µM in assay [9].
In the case of `Cc1ccc(/C=C/C(=O)c2sc(-c3nc(C)c(C(=O)/C=C/c4ccc(C)cc4)s3)nc2C)cc1`, the TGI in [10], in assay [1], in assay [2], in assay [3], in assay [4] and in [5] was over 100 µM in each case. The TGI in assay [6], in assay [8] and in assay [9] was over 100 µM throughout.
As to `COc1cc(NCc2ccc3nc(N)nc(N)c3c2C)cc(OC)c1OC` (tested in a mixture with another compound), the TGI in [10] is 26.6 µM; in assay [2], 46.6 µM; in assay [4] it was 88.5 µM and 48.7 µM; in assay [5], 48.7 µM; in assay [6], 68.6 µM; in assay [7] it was 33 µM. Besides, the TGI in assay [9] was 16.4 µM and 50.9 µM. Further, the GI50 in assay [3] is 0.000457 µM; in [4], 0.00227 µM and 0.016 µM; in assay [5] it was 0.00993 µM; in assay [7], 0.000185 µM; in assay [9] it was 0.000285 µM.
As for `Cc1cc(N(CCC#N)CCC#N)ccc1N=Nc1ccc(C(=O)O)cc1`, the TGI in assay [10], in [1], in [2], in [3], in assay [4] and in [5] was over 100 µM in each case. Moreover, the TGI in [6], in assay [8] and in assay [9] was over 100 µM each time.
`Nc1nc(/C=C\c2ccc([N+](=O)[O-])s2)nc(N2CCCC2)n1`: the GI50 in [10] was 10.8 µM; in assay [1] it was 1.43 µM; in assay [2], 1.22 µM; in assay [3] it was 3.45 µM; in assay [5], 4.39 µM; in assay [6] it was 4.72 µM. The figures for the GI50 in [7], in assay [8] and in assay [9] were 1.1 µM, 5.84 µM and 2.76 µM, respectively. Further, the TGI was 30 µM in [10]; 8.67 µM in [1]; 6.51 µM in [2]; 20.5 µM in [3]; 15.6 µM in [5]; 17.2 µM in assay [6]. The results for the TGI in assay [7], in assay [8] and in assay [9] were 4.68 µM, 18.6 µM and 24 µM, respectively.

For the origin of these results see PubChem BioAssay (NCI).
